The record followed here is patent publication US20250368649A1, “TETRAHYDROPYRIDOPYRIMIDINE PAN-KRAS INHIBITORS” (Mirati Therapeutics, Inc., priority 2022, published 2025).

One test concerns the target KRas WT (Homo sapiens, UniProt P01116). Briefly: KRas binding assay (TR-FRET displacement), KRas WT. As to conditions: for inhibition at 0.01 µM: single point, 10 nM compound. In general terms: TR-FRET usually uses a lanthanide donor and a delayed reading to cut background.
A further test relates to H358 cells. The test is described as follows: Inhibition of KRas-mediated phosphorylation of ERK (Cisbio HTRF pERK), H358 cells. In kind it is cell-based. The note with it: Homo sapiens, NCI-H358, single point at 100 nM, 3 hrs compound incubation.
The target in the next test is KRas G12C (Homo sapiens, UniProt P01116, G12C). In kind it is binding. The note with it: for inhibition at 0.01 µM: single point, 10 nM compound, read-out: Binding to KRas (% inhibition at 10 nM) G12C.
KRas G12C, sequence (P01116 1-169 isoform P01116-2 G12C): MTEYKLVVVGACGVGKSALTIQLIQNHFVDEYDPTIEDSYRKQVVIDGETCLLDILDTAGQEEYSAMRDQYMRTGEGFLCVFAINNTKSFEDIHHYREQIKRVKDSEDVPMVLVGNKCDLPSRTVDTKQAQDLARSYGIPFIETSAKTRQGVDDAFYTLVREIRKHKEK
For another test, the target named is KRas Q61H (Homo sapiens, UniProt P01116, Q61H). The test is described as follows: KRas binding assay (TR-FRET displacement), KRas Q61H. The note with it: for inhibition at 0.01 µM: single point, 10 nM compound.
KRas Q61H, sequence (P01116 1-169 isoform P01116-2 Q61H): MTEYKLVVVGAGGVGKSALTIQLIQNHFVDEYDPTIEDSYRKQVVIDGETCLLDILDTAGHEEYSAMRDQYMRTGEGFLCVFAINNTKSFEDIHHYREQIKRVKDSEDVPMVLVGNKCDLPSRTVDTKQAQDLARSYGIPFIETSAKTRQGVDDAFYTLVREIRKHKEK
For the next test, the system named is HCT116 cells. Briefly: Inhibition of KRas-mediated phosphorylation of ERK (Cisbio HTRF pERK), HCT116 cells. In kind it is cell-based. The note with it: Homo sapiens; for inhibition at 0.1 µM: HCT-116, single point at 100 nM, 3 hrs compound incubation.
The subject of a further test is H727 cells. Briefly: Inhibition of KRas-mediated phosphorylation of ERK (Cisbio HTRF pERK), H727 cells. The class given is cell-based. As to conditions: Homo sapiens; for IC50: NCI-H727, 3 h, 3 hr compound incubation, Cisbio pERK HTRF; for inhibition at 0.1 µM: NCI-H727, single point at 100 nM, 3 hrs compound incubation.
For a further test, the target named is KRas G12A (Homo sapiens, UniProt P01116, G12A). In kind it is binding. The note with it: for inhibition at 0.01 µM: single point, 10 nM compound, read-out: Binding to KRas (% inhibition at 10 nM) G12A.
KRas G12A, sequence (P01116 1-169 isoform P01116-2 G12A): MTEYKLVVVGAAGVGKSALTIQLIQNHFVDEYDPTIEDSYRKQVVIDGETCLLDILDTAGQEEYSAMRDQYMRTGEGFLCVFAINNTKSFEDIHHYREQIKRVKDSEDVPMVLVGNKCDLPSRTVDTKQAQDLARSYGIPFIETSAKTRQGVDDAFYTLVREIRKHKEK
In another test the test system is A549 cells. The test is described as follows: Inhibition of KRas-mediated phosphorylation of ERK (Cisbio HTRF pERK), A549 cells. In kind it is cell-based. The note with it: Homo sapiens; for inhibition at 0.1 µM: single point at 100 nM, 3 hrs compound incubation; for IC50: A549, 3 h, 3 hr compound incubation, Cisbio pERK HTRF.
The test system of a further test is MKN1 cells. The test is described as follows: Inhibition of KRas-mediated phosphorylation of ERK (Cisbio HTRF pERK), MKN1 cells. The class given is cell-based. The note with it: Homo sapiens, MKN-1, 3 hour compound incubation, Cisbio pERK HTRF. Summed up:
(§1)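 Seeding density of 6,000 cells per well was used, with cultures kept in RPMI/10% FBS from day 1.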

The subject of another test is H460 cells. The test is described as follows: Inhibition of KRas-mediated phosphorylation of ERK (Cisbio HTRF pERK), H460 cells. The class given is cell-based. The note with it: Homo sapiens; for inhibition at 0.1 µM: NCI-H460, single point at 100 nM, 3 hrs compound incubation; for IC50: NCI-H460, 3 h, 3 hr compound incubation, Cisbio pERK HTRF.
The next test has as its target KRas G12D (Homo sapiens, UniProt P01116, G12D). Briefly: biochemical. The note with it: Binding to KRas (IC50 nM) G12D, TR-FRET displacement, KRas G12D.
The target in another test is KRas G12S (Homo sapiens, UniProt P01116, G12S). In kind it is binding. The note with it: for inhibition at 0.01 µM: single point, 10 nM compound, read-out: Binding to KRas (% inhibition at 10 nM) G12S.
KRas G12S, sequence (P01116 1-169 isoform P01116-2 G12S): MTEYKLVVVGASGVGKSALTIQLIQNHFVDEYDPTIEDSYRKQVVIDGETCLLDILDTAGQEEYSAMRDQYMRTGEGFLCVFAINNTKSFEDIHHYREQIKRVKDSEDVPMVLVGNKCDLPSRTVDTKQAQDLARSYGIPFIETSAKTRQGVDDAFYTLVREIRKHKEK
A further test concerns the target KRas G13D (Homo sapiens, UniProt P01116, G13D). In kind it is binding. The note with it: for inhibition at 0.01 µM: single point, 10 nM compound, read-out: Binding to KRas (% inhibition at 10 nM) G13D.
The subject of another test is ASPC1 cells. The test is described as follows: Inhibition of KRas-mediated phosphorylation of ERK (Cisbio HTRF pERK), ASPC1 cells. The class given is cell-based. As to conditions: Homo sapiens, AsPC-1 cells; for IC50: ASPC1, 3 h, 3 hr compound incubation, Cisbio pERK HTRF; for inhibition at 0.1 µM: ASPC1, single point at 100 nM, 3 hrs compound incubation.
Another test concerns the target KRas G12V (Homo sapiens, UniProt P01116, G12V). The test is described as follows: biochemical. As to conditions: Binding to KRas (IC50 nM) G12V, TR-FRET displacement, KRas G12V.
A further test has as its target KRas G12R (Homo sapiens, UniProt P01116, G12R). The test is described as follows: biochemical. The note with it: Binding to KRas (IC50 nM) G12R, TR-FRET displacement, KRas G12R.
Another test deals with PSN1 cells. Briefly: Inhibition of KRas-mediated phosphorylation of ERK (Cisbio HTRF pERK), PSN1 cells. In kind it is cell-based. The note with it: Homo sapiens, PSN1, 3 h, 3 hour compound incubation, Cisbio pERK HTRF. Summed up:
as §1

KRas WT, sequence (P01116 1-169 isoform P01116-2): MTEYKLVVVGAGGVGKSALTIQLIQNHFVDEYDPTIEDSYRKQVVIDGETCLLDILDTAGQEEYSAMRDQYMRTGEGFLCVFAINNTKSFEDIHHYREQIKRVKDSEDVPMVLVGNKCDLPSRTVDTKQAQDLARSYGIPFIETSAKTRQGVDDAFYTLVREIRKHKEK
KRas G13D, sequence (P01116 1-169 isoform P01116-2 G13D): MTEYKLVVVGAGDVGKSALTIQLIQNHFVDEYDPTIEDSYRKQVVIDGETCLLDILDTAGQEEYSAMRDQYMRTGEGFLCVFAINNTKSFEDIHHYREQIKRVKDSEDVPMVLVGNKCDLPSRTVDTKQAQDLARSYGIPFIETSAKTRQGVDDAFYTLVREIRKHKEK
KRas G12R, sequence (P01116 1-169 isoform P01116-2 G12R): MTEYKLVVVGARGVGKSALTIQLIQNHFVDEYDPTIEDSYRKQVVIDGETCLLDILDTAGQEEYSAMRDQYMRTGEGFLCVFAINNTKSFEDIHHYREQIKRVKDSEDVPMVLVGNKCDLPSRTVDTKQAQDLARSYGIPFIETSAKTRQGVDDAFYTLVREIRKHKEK
KRas G12D, sequence (P01116 1-169 isoform P01116-2 G12D): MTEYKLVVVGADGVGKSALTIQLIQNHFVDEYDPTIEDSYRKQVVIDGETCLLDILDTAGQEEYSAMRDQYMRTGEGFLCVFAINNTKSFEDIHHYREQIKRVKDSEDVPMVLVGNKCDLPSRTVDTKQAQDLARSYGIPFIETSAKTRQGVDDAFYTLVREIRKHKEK
KRas G12V, sequence (P01116 1-169 isoform P01116-2 G12V): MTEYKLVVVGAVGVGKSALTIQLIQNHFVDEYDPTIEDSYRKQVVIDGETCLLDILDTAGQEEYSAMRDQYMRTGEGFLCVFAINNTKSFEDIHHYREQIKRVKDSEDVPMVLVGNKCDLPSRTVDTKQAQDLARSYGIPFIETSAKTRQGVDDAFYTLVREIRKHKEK

In general, inhibition refers to the relative decrease from the control value, in per cent. The term IC50 denotes the concentration needed to halve the response being measured. Regarding `CCc1c(F)ccc2cc(O)cc(N3CCc4c(nc(OC[C@@]56CCCN5C[C@H](F)C6)nc4N4CCCn5nc(C(=O)N6CCN7CC(O)CC7C6)cc5C4)C3)c12` (stereo partly drawn) [Example 257, (5-(7-(8-ethyl-7-fluoro-3-hydroxynaphthalen-1-yl)-2-(((2R,7aS)-2-fluorotetrahydro-1H-pyrrolizin-7a(5H)-yl)methoxy)-5,6,7,8-tetrahydropyrido[3,4-d]pyrimidin-4-yl)-5,6,7,8-tetrahydro-4H-pyrazolo[1,5-a][1,4]diazepin-2-yl)(7-hydroxyhexahydropyrrolo[1,2-a]pyrazin-2(1H)-yl)methanone], the inhibition at 0.01 µM came to 98% on KRas WT; 99% on KRas G12C; 100% at KRas Q61H; 97% at KRas G12A; 99% on KRas G12S; 98% at KRas G13D. Besides, the inhibition at 0.1 µM with H358 cells was found to be 95%; with HCT116 cells, 8%; in the test on H727 cells it was 36%; with A549 cells it was 35%; in the test with H460 cells, 21%; in the test with ASPC1 cells, 77%. Also, the IC50 with H727 cells is 55 nM; in the test on MKN1 cells, 1.2 nM; on KRas G12D, < 2 nM; with ASPC1 cells, 31 nM; at KRas G12V, < 2 nM; on KRas G12R it was < 2 nM. Further, in the test on PSN1 cells, the IC50 was > 10000 nM.

In the case of `CCc1c(F)ccc2cc(O)cc(N3CCc4c(nc(OC[C@@]56CCCN5C[C@H](F)C6)nc4N4CCCn5nc(C(=O)N6C7CCC6CNC7)cc5C4)C3)c12` [Example 258, 3,8-diazabicyclo[3.2.1]octan-8-yl(5-(7-(8-ethyl-7-fluoro-3-hydroxynaphthalen-1-yl)-2-(((2R,7aS)-2-fluorohexahydro-1H-pyrrolizin-7a-yl)methoxy)-5,6,7,8-tetrahydropyrido[3,4-d]pyrimidin-4-yl)-5,6,7,8-tetrahydro-4H-pyrazolo[1,5-a][1,4]diazepin-2-yl)methanone], the inhibition at 0.01 µM at KRas WT is 97%; at KRas G12C, 100%; on KRas Q61H it was 97%; on KRas G12A, 98%; at KRas G12S it was 99%; on KRas G13D it was 98%. Moreover, the inhibition at 0.1 µM was 95% in the test with H358 cells; 3% in the test with HCT116 cells; 55% in the test on H727 cells; 42% in the test with A549 cells; 24% with H460 cells; 79% in the test with ASPC1 cells. The IC50 in the test with H727 cells was 24 nM; in the test with MKN1 cells, 5.4 nM; at KRas G12D, < 2 nM; in the test on ASPC1 cells it was 29 nM; at KRas G12V, < 2 nM; at KRas G12R, < 2 nM. In addition, half-maximal inhibition in the test with PSN1 cells (IC50) was put at 8640 nM.

For the compound `CCc1c(F)ccc2cc(O)cc(N3CCc4c(nc(OC[C@@]56CCCN5C[C@H](F)C6)nc4N4CCCn5nc(NC)c(C)c5C4)C3)c12` [Example 376, 5-ethyl-6-fluoro-4-(2-(((2R,7aS)-2-fluorohexahydro-1H-pyrrolizin-7a-yl)methoxy)-4-(3-methyl-2-(methylamino)-7,8-dihydro-4H-pyrazolo[1,5-a][1,4]diazepin-5(6H)-yl)-5,6-dihydropyrido[3,4-d]pyrimidin-7(8H)-yl)naphthalen-2-ol], the inhibition at 0.01 µM on KRas WT came to 53%; at KRas G12C, 78%; on KRas Q61H it was 51%; at KRas G12A it was 54%; on KRas G12S it was 70%; on KRas G13D it was 61%. The inhibition at 0.1 µM was 70% with H358 cells and 34% in the test with A549 cells. Also, the IC50 in the test on H727 cells came out at 124 nM; in the test with MKN1 cells it was 76.1 nM; in the test with H460 cells, 112 nM; on KRas G12D, 4 nM; in the test on ASPC1 cells, 55 nM; at KRas G12V, 4 nM. Besides, the figures for the IC50 on KRas G12R and in the test on PSN1 cells were 3 nM and > 10000 nM, respectively.

With `CCc1c(F)ccc2cc(O)cc(N3CCc4c(nc(OC[C@@]56CCCN5C[C@H](F)C6)nc4N4Cc5cn(C(=O)N(C)C)nc5CC(C)C4)C3)c12` (stereo partly drawn) [Example 422, 5-(7-(8-ethyl-7-fluoro-3-hydroxynaphthalen-1-yl)-2-(((2R,7aS)-2-fluorohexahydro-1H-pyrrolizin-7a-yl)methoxy)-5,6,7,8-tetrahydropyrido[3,4-d]pyrimidin-4-yl)-N,N,7-trimethyl-5,6,7,8-tetrahydropyrazolo[4,3-c]azepine-2(4H)-carboxamide], the inhibition at 0.01 µM came out at 58% at KRas WT; 72% on KRas G12C; 62% on KRas Q61H; 55% on KRas G12A; 60% on KRas G12S; 55% on KRas G13D. Also, the IC50 in the test with HCT116 cells (HCT-116, 3 h, 3 hr compound incubation, Cisbio pERK HTRF) is 616 nM; in the test with H727 cells it was 78 nM; in the test with A549 cells, 147 nM; in the test with MKN1 cells it was 189 nM; with H460 cells, 169 nM; on KRas G12D it was 2 nM. In addition, the IC50 is 163 nM with ASPC1 cells, < 2 nM at KRas G12V, 3 nM on KRas G12R and > 10000 nM in the test with PSN1 cells.

Turning to `CCc1c(F)ccc2cccc(N3CCc4c(nc(OC[C@@]56CCCN5C[C@H](F)C6)nc4N4CCCn5nc(C(=O)N(C)C)cc5C4)C3)c12` [Example 481, 5-(7-(8-ethyl-7-fluoronaphthalen-1-yl)-2-(((2R,7aS)-2-fluorohexahydro-1H-pyrrolizin-7a-yl)methoxy)-5,6,7,8-tetrahydropyrido[3,4-d]pyrimidin-4-yl)-N,N-dimethyl-5,6,7,8-tetrahydro-4H-pyrazolo[1,5-a][1,4]diazepine-2-carboxamide], the 50% inhibitory concentration (IC50) stood at 11 nM at KRas WT (TR-FRET displacement); 4 nM on KRas G12C (TR-FRET displacement, read-out: Binding to KRas (IC50 nM) G12C); 13 nM on KRas Q61H (TR-FRET displacement); 194 nM with H727 cells; 7 nM at KRas G12A (TR-FRET displacement, read-out: Binding to KRas (IC50 nM) G12A); 285 nM in the test on A549 cells. The half-maximal inhibitory concentration (IC50) in the test on MKN1 cells is 480 nM; at KRas G12D it was < 2 nM; on KRas G12S (TR-FRET displacement, read-out: Binding to KRas (IC50 nM) G12S), 5 nM; on KRas G13D (TR-FRET displacement, read-out: Binding to KRas (IC50 nM) G13D) it was 15 nM; in the test with ASPC1 cells it was 106 nM; on KRas G12V, 2 nM. The IC50 on KRas G12R was 6 nM; with PSN1 cells, > 10000 nM. For the same compound, the inhibition at 0.1 µM with HCT116 cells is 8%; in the test on H460 cells, -1%.
